≈ marks a conversion by molar mass, not a printed value. Marks after values point to notes of the source that are not given here. Starred links: 1 amine or outer side, 2 acyl side, 3 side chain; linkers in the order of their positions; H or OH if unused. Non-standard residues stand in square brackets, D forms with d. Residues, ends and D or L forms follow the SMILES beside them. X1 = O=C([C@H]1C[C@]2(O)c3ccccc3N[C@@H]2N1[*:1])[*:2]

In one assay the test system is Mycobacterium marinum. Further details: method as in Hou et al. [2019b]. The following applies: previous research; positive controls rifampin, streptomycin, isoniazid; ref Hou et al. [2019b]; cited from earlier work.
For assay [1], the system named is Mycobacterium tuberculosis H37Ra (ATCC 25,177). Description: microbe, parasite or virus in culture. Type of assay: cell-based. The following applies: microplate Alamar Blue assay; for inhibitory activity against M. tuberculosis H37Ra at a single concentration: at a concentration of 100 μg/mL. Here is the method:
Anti-mycobacterial activity was determined against Mycobacterium tuberculosis H37Ra (ATCC 25,177) in a microplate Alamar Blue assay system (Collins et al. [1997]). The anti-tubercular drug rifampin was used as a positive control.
A general note: The colour change of resazurin is a common sign of viable cells or microbes.

The test system is the same in assay [2]. The following applies: reported data; ref Hou et al. 2019; cited from earlier work. The source says:
Supplement 42995_2022_157_MOESM1_ESM.docx, table 2: Table S2. Antitubercular activity of compounds 1, 8−19 and previously reported 2, 20−23 against Mycobacterium tuberculosis H37Ra | column: MICs (μmol/L)

As for `CC(C)[C@H]1NC(=O)[C@H](Cc2ccccc2)NC(=O)[C@@H](C(C)C)NC(=O)[C@@H](C)NC(=O)[C@H](CO)NC(=O)[C@@H](Cc2c[nH]c3ccccc23)NC(=O)[C@@H](CO)NC1=O` [Compound 1, asperversiamide A] (cyclo([dV][dS][dW]S[dA][dV]F)), in the assay with Mycobacterium marinum, the “minimum inhibitory concentrations (MICs) against Mycobacterium marinum” value (“minimum inhibitory concentrations (MICs)” for short) is 23.4 µM (≈ 18.2 µg/mL). For the same compound, the “MICs (μg/mL) against Mycobacterium tuberculosis H37Ra” value (“MICs (μg/mL)” below) in assay [1] (rifampin as positive control) was greater than 100 µg/mL.
On to `CC(C)[C@H]1NC(=O)[C@H](Cc2ccccc2)NC(=O)[C@@H](C(C)C)NC(=O)[C@@H](C)NC(=O)[C@H](CO)NC(=O)[C@H]2C[C@]3(O)c4ccccc4N[C@@H]3N2C(=O)[C@@H](CO)NC1=O` [Compound 8, asperpyrroindotide A] (cyclo([X1]S[dA][dV]F[dV][dS])), for which the “inhibitory activity against M. tuberculosis H37Ra at a single concentration” value in assay [1] is “None of them showed obvious inhibitory activity”. The “MICs (μg/mL)” value in assay [1] (rifampin as positive control) is greater than 100 µg/mL.
Take `CC(C)[C@H]1NC(=O)[C@H](Cc2ccccc2)NC(=O)[C@@H](C(C)C)NC(=O)[C@@H](C)NC(=O)[C@H](C)NC(=O)[C@H]2C[C@]3(O)c4ccccc4N[C@@H]3N2C(=O)[C@@H](CO)NC1=O` [Compound 9] (cyclo([X1]A[dA][dV]F[dV][dS])): in assay [1], the “inhibitory activity against M. tuberculosis H37Ra at a single concentration” value is given as “None of them showed obvious inhibitory activity”. The “MICs (μg/mL)” value in assay [1] (rifampin as positive control) is greater than 100 µg/mL.
On to `NNC(=O)c1ccncc1` [isoniazid, reference compound], for which the “minimum inhibitory concentrations (MICs)” value with Mycobacterium marinum is 88.5 µM (≈ 12.1 µg/mL).
For `CO[C@H]1/C=C/O[C@@]2(C)Oc3c(C)c(O)c4c(O)c(c(/C=N/N5CCN(C)CC5)c(O)c4c3C2=O)NC(=O)/C(C)=C\C=C\[C@H](C)[C@H](O)[C@@H](C)[C@@H](O)[C@@H](C)[C@H](OC(C)=O)[C@@H]1C` [rifampin, reference compound], the “minimum inhibitory concentrations (MICs)” value in the assay on Mycobacterium marinum was 19.0 µM (≈ 15.6 µg/mL). Also, the MIC in assay [1] (Mycobacterium tuberculosis, rifampin as positive control, read-out: MICs (μg/mL) against Mycobacterium tuberculosis H37Ra) amounted to 0.0156 µg/mL (≈ 0.019 µM).
Take `[H]/N=C(/N)N[C@H]1[C@H](O)[C@@H](O)[C@H](O[C@@H]2O[C@@H](C)[C@](O)(C=O)[C@H]2O[C@@H]2O[C@@H](CO)[C@H](O)[C@@H](O)[C@@H]2NC)[C@@H](N/C(N)=N\[H])[C@@H]1O` [streptomycin, reference compound]: the “minimum inhibitory concentrations (MICs)” value in the assay on Mycobacterium marinum was 20.1 µM (≈ 11.7 µg/mL).
As to asperversiamide B [Compound 2], in assay [2], the “MICs (μmol/L) against Mycobacterium tuberculosis H37Ra” value is recorded as 100 ^b μmol/L. Moreover, in the assay with Mycobacterium marinum, the “minimum inhibitory concentrations (MICs)” value was 81.2 µM.
Regarding asperversiamide C [Compound 3], the “minimum inhibitory concentrations (MICs)” value with Mycobacterium marinum is 87.5 µM.

Values taken from PMC9854410, “Targeted isolation of antitubercular cycloheptapeptides and an unusual pyrroloindoline-containing new analog, asperpyrroindotide A, using LC–MS/MS-based molecular networking” (Marine Life Science & Technology, 2023).
